{"source": "patent US10758534B2", "about": "(Vertex Pharmaceuticals Incorporated, priority 2014, dated 2020)", "target": "T1, F508del (Homo sapiens, UniProt P13569, DEL508-508)", "T1 construct": "expressed in transfected cells", "T1 sequence (P13569 with tags, fused parts or gaps DEL508-508)": "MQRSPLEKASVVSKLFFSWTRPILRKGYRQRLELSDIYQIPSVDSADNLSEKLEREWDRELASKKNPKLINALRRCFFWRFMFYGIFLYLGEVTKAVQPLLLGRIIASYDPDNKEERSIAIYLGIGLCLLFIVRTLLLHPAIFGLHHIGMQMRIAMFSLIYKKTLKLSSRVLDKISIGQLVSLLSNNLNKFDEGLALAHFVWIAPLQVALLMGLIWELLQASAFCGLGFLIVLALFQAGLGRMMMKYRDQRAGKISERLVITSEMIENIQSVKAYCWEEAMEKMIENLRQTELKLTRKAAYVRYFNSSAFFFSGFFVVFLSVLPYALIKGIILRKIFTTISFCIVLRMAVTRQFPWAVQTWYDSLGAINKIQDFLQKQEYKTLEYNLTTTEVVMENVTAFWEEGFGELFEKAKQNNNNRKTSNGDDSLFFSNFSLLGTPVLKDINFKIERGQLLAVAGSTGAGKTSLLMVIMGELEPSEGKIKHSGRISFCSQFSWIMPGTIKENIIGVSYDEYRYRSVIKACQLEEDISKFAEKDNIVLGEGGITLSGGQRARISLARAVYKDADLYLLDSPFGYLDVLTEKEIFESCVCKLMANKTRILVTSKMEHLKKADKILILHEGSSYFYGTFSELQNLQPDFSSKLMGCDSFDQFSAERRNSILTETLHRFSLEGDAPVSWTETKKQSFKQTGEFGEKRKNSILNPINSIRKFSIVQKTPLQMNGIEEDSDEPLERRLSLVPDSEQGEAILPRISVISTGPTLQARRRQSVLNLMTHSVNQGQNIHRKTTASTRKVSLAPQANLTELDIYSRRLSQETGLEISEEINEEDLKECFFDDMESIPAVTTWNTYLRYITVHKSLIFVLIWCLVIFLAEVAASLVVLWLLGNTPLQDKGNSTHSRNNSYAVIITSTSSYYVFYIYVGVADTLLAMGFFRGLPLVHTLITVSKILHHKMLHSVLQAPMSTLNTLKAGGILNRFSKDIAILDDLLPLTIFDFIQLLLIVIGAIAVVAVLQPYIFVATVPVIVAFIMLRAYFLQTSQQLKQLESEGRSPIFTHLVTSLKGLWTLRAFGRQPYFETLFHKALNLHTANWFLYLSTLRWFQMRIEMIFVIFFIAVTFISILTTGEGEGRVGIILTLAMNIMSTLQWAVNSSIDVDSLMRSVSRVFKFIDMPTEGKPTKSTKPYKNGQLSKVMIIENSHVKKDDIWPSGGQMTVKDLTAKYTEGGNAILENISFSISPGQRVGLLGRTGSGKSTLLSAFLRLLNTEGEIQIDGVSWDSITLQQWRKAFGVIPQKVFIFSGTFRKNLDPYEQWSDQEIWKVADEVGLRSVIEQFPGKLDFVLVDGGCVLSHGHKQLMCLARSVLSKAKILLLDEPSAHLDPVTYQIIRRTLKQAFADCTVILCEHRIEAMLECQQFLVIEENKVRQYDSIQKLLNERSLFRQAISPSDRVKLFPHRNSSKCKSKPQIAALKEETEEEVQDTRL", "experiment": "Protocol 1: membrane potential optical assay (FLIPR III, voltage sensing dye), identification of potentiator compounds", "format": "cell-based", "conditions": "Table 3, compounds of Table 1", "in_short": "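Mouse NIH 3T3 fibroblasts stably expressing F508del, temperature-corrected at 27 °C for 24 h, pretreated with compound, then loaded with voltage-sensing redistribution dye. Forskolin was added in a single step with a chloride gradient (chloride-free gluconate bath; Bath Solution #1 HEPES pH 7.4). Membrane-potential fluorescence read on FLIPR III.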"}
{"compound": "C[C@@H]1CN(c2nc(-c3cc(F)cc(OCC(C)(C)O)c3)ccc2C(=O)NS(=O)(=O)c2cccc(N)n2)C(C)(C)C1", "note": "[Compound 1424, N-[(6-amino-2-pyridyl)sulfonyl]-6-[3-fluoro-5-(2-hydroxy-2-methyl-propoxy)phenyl]-2-[(4S)-2,2,4-trimethylpyrrolidin-1-yl]pyridine-3-carboxamide]", "values": [{"measurement": "EC30", "result": "+++ (“+++” means <3 uM)"}]}
{"compound": "CCOc1cccc2c1CN(Cc1c(C)cc(C)cc1C)C2(C)C(=O)NS(=O)(=O)c1cccc(F)c1", "note": "(stereo not drawn) [Compound 1425, 4-ethoxy-N-(3-fluorophenyl)sulfonyl-1-methyl-2-[(2,4,6-trimethylphenyl)methyl]isoindoline-1-carboxamide]", "values": [{"measurement": "EC30", "result": "+++ (“+++” means <3 uM)"}]}
{"compound": "CC(C)COc1cc(F)cc(-c2ccc(C(=O)NS(=O)(=O)c3cccc(N)n3)c(OCCc3ccccc3)n2)c1", "note": "[Compound 1426, N-[(6-amino-2-pyridyl)sulfonyl]-6-(3-fluoro-5-isobutoxy-phenyl)-2-phenethyloxy-pyridine-3-carboxamide]", "values": [{"measurement": "EC30", "result": "+++ (“+++” means <3 uM)"}]}
{"compound": "Cc1cc(C)c(Oc2nc(C3CC(C)(C)CCC3=O)ccc2C(=O)NS(=O)(=O)c2cccc(N)n2)c(C)c1", "note": "(stereo not drawn) [Compound 1427, N-[(6-amino-2-pyridyl)sulfonyl]-6-(5,5-dimethyl-2-oxo-cyclohexyl)-2-(2,4,6-trimethylphenoxy)pyridine-3-carboxamide]", "values": [{"measurement": "EC30", "result": "+++ (“+++” means <3 uM)"}]}
{"compound": "CCOc1cccc2c1CN(Cc1cc(F)cc(OC)c1)C2(C)C(=O)NS(=O)(=O)c1cccc(F)n1", "note": "(stereo not drawn) [Compound 1428, 4-ethoxy-2-[(3-fluoro-5-methoxy-phenyl)methyl]-N-[(6-fluoro-2-pyridyl)sulfonyl]-1-methyl-isoindoline-1-carboxamide]", "values": [{"measurement": "EC30", "result": "+++ (“+++” means <3 uM)"}]}
{"compound": "CC(C)COc1cc(F)cc(-c2ccc(C(=O)NS(=O)(=O)c3ccc(OCc4ccccc4)c(N)n3)c(N3C[C@@H](C)CC3(C)C)n2)c1", "note": "[Compound 1429, N-[(6-amino-5-benzyloxy-2-pyridyl)sulfonyl]-6-(3-fluoro-5-isobutoxy-phenyl)-2-[(4S)-2,2,4-trimethylpyrrolidin-1-yl]pyridine-3-carboxamide]", "values": [{"measurement": "EC30", "result": "+++ (“+++” means <3 uM)"}]}
{"compound": "CC(C)COc1cc(F)cc(-c2cc(O)c(C(=O)NS(=O)(=O)c3cccc(N)n3)c(N3[C@H](C)CC[C@@H]3C)n2)c1", "note": "[Compound 1430, N-[(6-amino-2-pyridyl)sulfonyl]-2-[(2S,5R)-2,5-dimethylpyrrolidin-1-yl]-6-(3-fluoro-5-isobutoxy-phenyl)-4-hydroxy-pyridine-3-carboxamide]", "values": [{"measurement": "EC30", "result": "+++ (“+++” means <3 uM)"}]}
{"compound": "CC(C)Cc1ccnn1-c1ccc(C(=O)NS(=O)(=O)c2cccc(N)n2)c(N2C[C@@H](C)CC2(C)C)n1", "note": "[Compound 1431, N-[(6-amino-2-pyridyl)sulfonyl]-6-(5-isobutylpyrazol-1-yl)-2-[(4S)-2,2,4-trimethylpyrrolidin-1-yl]pyridine-3-carboxamide]", "values": [{"measurement": "EC30", "result": "+++ (“+++” means <3 uM)"}]}
{"compound": "CCOC(=O)C1CC=C(c2ccc(C(=O)NS(=O)(=O)c3cccc(N)n3)c(Oc3c(C)cc(C)cc3C)n2)CC1", "note": "(stereo not drawn) [Compound 1432, ethyl 4-[5-[(6-amino-2-pyridyl)sulfonylcarbamoyl]-6-(2,4,6-trimethylphenoxy)-2-pyridyl]cyclohex-3-ene-1-carboxylate]", "values": [{"measurement": "EC30", "result": "+++ (“+++” means <3 uM)"}]}
{"compound": "CCOc1cccc2c1CN(Cc1ccc(F)cc1)C2(C)C(=O)NS(=O)(=O)c1cccc(N)n1", "note": "(stereo not drawn) [Compound 1433, N-[(6-amino-2-pyridyl)sulfonyl]-4-ethoxy-2-[(4-fluorophenyl)methyl]-1-methyl-isoindoline-1-carboxamide]", "values": [{"measurement": "EC30", "result": "++ (“++” means between 3 uM and 10 uM)"}]}
{"compound": "CC(C)COc1cc(F)cc(-c2ccc(C(=O)NS(=O)(=O)c3cccc(N)n3)c(OC(C)c3cccnc3)n2)c1", "note": "(stereo not drawn) [Compound 1434, N-[(6-amino-2-pyridyl)sulfonyl]-6-(3-fluoro-5-isobutoxy-phenyl)-2-[1-(3-pyridyl)ethoxy]pyridine-3-carboxamide]", "values": [{"measurement": "EC30", "result": "+++ (“+++” means <3 uM)"}]}
{"compound": "CC(C)COc1cc(F)cc(-c2ccc(C(=O)NS(=O)(=O)N3CCC[C@H](N)C3)c(N3C[C@@H](C)CC3(C)C)n2)c1", "note": "[Compound 1435, N—[[(3S)-3-amino-1-piperidyl]sulfonyl]-6-(3-fluoro-5-isobutoxy-phenyl)-2-[(4S)-2,2,4-trimethylpyrrolidin-1-yl]pyridine-3-carboxamide]", "values": [{"measurement": "EC30", "result": "+++ (“+++” means <3 uM)"}]}
{"compound": "CC(C)Oc1ccc(-c2nc(N3C[C@@H](C)CC3(C)C)ccc2C(=O)NS(=O)(=O)c2cccc(N)n2)cn1", "note": "[Compound 1436, N-[(6-amino-2-pyridyl)sulfonyl]-2-(6-isopropoxy-3-pyridyl)-6-[(4S)-2,2,4-trimethylpyrrolidin-1-yl]pyridine-3-carboxamide]", "values": [{"measurement": "EC30", "result": "++ (“++” means between 3 uM and 10 uM)"}]}
{"compound": "Cc1cc(C)c(Oc2nc(C3=CCCC4(C3)OCCO4)ccc2C(=O)NS(=O)(=O)c2cccc(N)n2)c(C)c1", "note": "[Compound 1437, N-[(6-amino-2-pyridyl)sulfonyl]-6-(1,4-dioxaspiro[4.5]dec-8-en-9-yl)-2-(2,4,6-trimethylphenoxy)pyridine-3-carboxamide]", "values": [{"measurement": "EC30", "result": "++ (“++” means between 3 uM and 10 uM)"}]}
{"compound": "C[C@@H]1CN(c2nc(C3=CCCCO3)ccc2C(=O)NS(=O)(=O)c2cccc(N)n2)C(C)(C)C1", "note": "[Compound 1438, N-[(6-amino-2-pyridyl)sulfonyl]-6-(3,4-dihydro-2H-pyran-6-yl)-2-[(4S)-2,2,4-trimethylpyrrolidin-1-yl]pyridine-3-carboxamide]", "values": [{"measurement": "EC30", "result": "+++ (“+++” means <3 uM)"}]}
{"compound": "C[C@@H]1CN(c2nc(C3CC(C)(C)CCC3O)ccc2C(=O)NS(=O)(=O)c2cccc(N)n2)C(C)(C)C1", "note": "(stereo partly drawn) [Compound 1439, N-[(6-amino-2-pyridyl)sulfonyl]-6-(2-hydroxy-5,5-dimethyl-cyclohexyl)-2-[(4S)-2,2,4-trimethylpyrrolidin-1-yl]pyridine-3-carboxamide]", "values": [{"measurement": "EC30", "result": "++ (“++” means between 3 uM and 10 uM)"}]}
{"compound": "CC(C)COc1cc(F)cc(-c2ccc(C(=O)NS(=O)(=O)c3cccc(N)n3)c(OCCC3CCCC3)n2)c1", "note": "[Compound 1440, N-[(6-amino-2-pyridyl)sulfonyl]-2-(2-cyclopentylethoxy)-6-(3-fluoro-5-isobutoxy-phenyl)pyridine-3-carboxamide]", "values": [{"measurement": "EC30", "result": "+++ (“+++” means <3 uM)"}]}
{"compound": "CC1CN(c2nc(C(C)(C)C)c(-c3cnn(C)c3)cc2C(=O)NS(=O)(=O)c2cccc(N)n2)C(C)(C)C1", "note": "(stereo not drawn) [Compound 1441, N-[(6-amino-2-pyridyl)sulfonyl]-6-tert-butyl-5-(1-methylpyrazol-4-yl)-2-(2,2,4-trimethylpyrrolidin-1-yl)pyridine-3-carboxamide]", "values": [{"measurement": "EC30", "result": "++ (“++” means between 3 uM and 10 uM)"}]}
{"compound": "CC(C)[C@@H](C)Nc1ccc(-c2ccc(C(=O)NS(=O)(=O)c3cccc(N)n3)c(N3[C@H](C)CC[C@@H]3C)n2)cn1", "note": "[Compound 1442, N-[(6-amino-2-pyridyl)sulfonyl]-6-[6-[[(1R)-1,2-dimethylpropyl]amino]-3-pyridyl]-2-[(2S,5R)-2,5-dimethylpyrrolidin-1-yl]pyridine-3-carboxamide]", "values": [{"measurement": "EC30", "result": "+++ (“+++” means <3 uM)"}]}
{"compound": "CC(C)COc1cnn(-c2ccc(C(=O)NS(=O)(=O)c3cccc(N)n3)c(N3C[C@@H](C)CC3(C)C)n2)c1", "note": "[Compound 1443, N-[(6-amino-2-pyridyl)sulfonyl]-6-(4-isobutoxypyrazol-1-yl)-2-[(4S)-2,2,4-trimethylpyrrolidin-1-yl]pyridine-3-carboxamide]", "values": [{"measurement": "EC30", "result": "+++ (“+++” means <3 uM)"}]}
{"compound": "CC(C)COc1cc(F)cc(-c2ccc(C(=O)NS(=O)(=O)c3cccnc3N)c(N3C[C@H](C)CC3(C)C)n2)c1", "note": "[Compound 1444, N-[(2-amino-3-pyridyl)sulfonyl]-6-(3-fluoro-5-isobutoxy-phenyl)-2-[(4R)-2,2,4-trimethylpyrrolidin-1-yl]pyridine-3-carboxamide]", "values": [{"measurement": "EC30", "result": "+++ (“+++” means <3 uM)"}]}
{"compound": "CC(C)COc1cc(F)cc(-c2ccc(C(=O)NS(=O)(=O)N3CCCC(C)(N)C3)c(N3CC(C)CC3(C)C)n2)c1", "note": "(stereo not drawn) [Compound 1445, N-[(3-amino-3-methyl-1-piperidyl)sulfonyl]-6-(3-fluoro-5-isobutoxy-phenyl)-2-(2,2,4-trimethylpyrrolidin-1-yl)pyridine-3-carboxamide]", "values": [{"measurement": "EC30", "result": "+++ (“+++” means <3 uM)"}]}
{"compound": "CC(C)COc1cc(F)cc(-c2ccc(C(=O)NS(=O)(=O)c3cccc(N)n3)c(OC3CC3)n2)c1", "note": "[Compound 1446, N-[(6-amino-2-pyridyl)sulfonyl]-2-(cyclopropoxy)-6-(3-fluoro-5-isobutoxy-phenyl)pyridine-3-carboxamide]", "values": [{"measurement": "EC30", "result": "+++ (“+++” means <3 uM)"}]}
{"compound": "CC(C)COc1cc(F)cc(-c2ccc(C(=O)NS(=O)(=O)N3CCCC(N)C3)c(N3CC(C)CC3(C)C)n2)c1", "note": "(stereo not drawn) [Compound 1447, N-[(3-amino-1-piperidyl)sulfonyl]-6-(3-fluoro-5-isobutoxy-phenyl)-2-(2,2,4-trimethylpyrrolidin-1-yl)pyridine-3-carboxamide]", "values": [{"measurement": "EC30", "result": "+++ (“+++” means <3 uM)"}]}
{"compound": "CCOc1cccc2c1CN(Cc1c(C)cc(C)cc1C)C2(C)C(=O)NS(=O)(=O)c1ccncc1", "note": "(stereo not drawn) [Compound 1449, 4-ethoxy-1-methyl-N-(4-pyridylsulfonyl)-2-[(2,4,6-trimethylphenyl)methyl]isoindoline-1-carboxamide]", "values": [{"measurement": "EC30", "result": "+++ (“+++” means <3 uM)"}]}
{"compound": "CC(C)COc1cc(F)cc(-c2ccc(C(=O)NS(=O)(=O)c3cccc(N)n3)c(OCC3CCCC3)n2)c1", "note": "[Compound 1450, N-[(6-amino-2-pyridyl)sulfonyl]-2-(cyclopentylmethoxy)-6-(3-fluoro-5-isobutoxy-phenyl)pyridine-3-carboxamide]", "values": [{"measurement": "EC30", "result": "+++ (“+++” means <3 uM)"}]}
{"compound": "CC(C)COc1cc(F)cc(-c2ccc(C(=O)NS(=O)(=O)c3cccc(N)n3)c(OC3CCCC3)n2)c1", "note": "[Compound 1451, N-[(6-amino-2-pyridyl)sulfonyl]-2-(cyclopentoxy)-6-(3-fluoro-5-isobutoxy-phenyl)pyridine-3-carboxamide]", "values": [{"measurement": "EC30", "result": "+++ (“+++” means <3 uM)"}]}
